Experiments:
human CaM = experiment: CaM mobility shift gel (CBD peptide binding to CaM); conditions: 200 pmol CaM; for order of binding affinity for CBD variants to CaM: densitometric analysis of attenuation of free CaM bands (I/I0 versus peptide:CaM ratio), 100 μM CaCl2, pH 7.5, triplicate gels (n=4 in Figure 5 legend); for CaM-peptide complex formation: non-denaturing, non-reducing PAGE (18% gel), peptide 0–2000 pmol, 1 h, 20 mM Tris, pH 7.5, 100 μM CaCl2, Coomassie staining
Method: Human CaM was purified essentially as described previously. CaM (200 pmol) was incubated with each peptide at several molar ratios for 1 h in 10 μl of buffer containing 20 mM Tris, pH 7.5 with 100 μM CaCl2. The sample was subjected to non-denaturing, non-reducing PAGE (18% gel) at 30 mA under high Ca^2+ conditions (100 μM free Ca^2+ in all gel buffers). Binding of peptides to CaM was visualized by Coomassie Brilliant Blue R-250 staining. The relative amount of CaM on the gel at each peptide concentration (I) was determined by densitometry and normalized to CaM in the absence of peptide (I0). The data are plotted as the mean I/I0±S.D. (n=4) versus peptide:CaM ratio.
What needs to be explained is why a similar activation of eNOS is observed with little effect on phosphorylation of Thr^495 in mutant Δ605. Thus, it is difficult at this stage to conclude the precise roles of Thr^495 dephosphorylation in the activation of eNOS. Conflicting conclusions have also been drawn from earlier observations in the role of Thr^495 phosphorylation with eNOS activation. It has been reported that eNOS activity is increased by phosphorylation of Ser^1177 despite enhanced Thr^495 phosphorylation. […] To resolve this discrepancy, we synthesized peptides representing heNOS CBD (residues 491–510) with point mutations at Thr^495 site (Figure 5A) and determined the apparent affinity of the CBD variants to CaM. Each peptide with increasing concentrations (0–2000 pmol) was incubated with purified CaM at a fixed concentration (200 pmol) in the presence of 100 μM CaCl2. The mixtures were electrophoresed on non-reducing, non-denaturing gels. […] Peptide–CaM complexes migrate as higher molecular weight bands than free CaM in the presence of calcium. […] The extent of CaM-peptide interaction was assessed by densitometric analysis of attenuation of free CaM bands in the presence of increasing concentrations of each peptide.
Figure 5 Interaction of synthetic CBD peptides with calcium/CaM (A) Peptide CBD sequences (residues 491–510, based on heNOS) with unmodified T495 (T495), phosphonull A substitution (A495, red colour), phosphomimetic substitution (D495, blue colour) and phosphorylated T495 (pT495, brown colour) are indicated. (B) The synthetic CBD variants were incubated with CaM (200 pmol) by increasing peptide:CaM molar ratios in the presence of 100 μM CaCl2 before electrophoresis. The samples were analysed on 18% non-denaturing gels and visualized with Coomassie Brilliant Blue R-250. Representative Coomassie Brilliant Blue-stained gels of samples containing CaM and increasing molar ratios of T495, A495, D495 and pT495 are shown. The first lane in each gel contains CaM only, i.e., CBD/CaM ratio is 0. The rest CBD/CaM ratios were 0.1:1 (2nd lane), 0.2:1 (3rd lane), 0.4:1 (4th lane), 0.8:1 (5th lane), 1.6:1 (6th lane), 3.2:1 (7th lane), 6.4:1 (8th lane) and 12.8:1 (9th lane). CBD–CaM complexes and free CaM are denoted. (C) The relative amount of CaM on the gel at each peptide concentration (I) was determined by densitometry and normalized to CaM in the absence of peptide (I0). The data are plotted as the mean I/I0±S.D. (n=4) versus peptide:CaM ratio.

eNOS [1] = experiment: Inhibition of eNOS oxygenase activity (L-[^3H]citrulline formation) by CBD peptides; format: biochemical, human; conditions: 10 μM peptide; for inhibition of L-citrulline formation: relative to rate without peptide, mean of triplicate experiments; for order of inhibitory potency to eNOS activity: inter-domain electron transfer (citrulline formation): same order stated for CaM binding affinity
Method: (§1) The expression and purification of eNOS from Sf21 cells was carried out essentially same as previously reported. The inhibition of eNOS oxygenase activity by unmodified or modified CBDs was tested at 37°C for 4 min by measuring L-[^3H]citrulline formation in a mixture containing 25 mM Tris, pH 7.5, 100 mM NaCl, 0.5 μM CaM, 0.2 mM EDTA, 0.3 mM CaCl2, 100 μM β-NADPH, 10 μM H4B, 20 μM L-arginine, 1 μCi of L-[^3H]arginine, 100 nM eNOS, and in the presence or absence of 10 μM of each peptide. Cytochrome c reduction was determined at room temperature (25°C) in a reaction mixture containing 25 mM Tris–HCl, pH 7.5, 100 mM NaCl, 10% glycerol, 50 μM cytochrome c, 0.5 μM CaM, 100 μM CaCl2 and 100 μM β-NADPH in the presence or absence of 10 μM of each peptide. The reaction was initiated by addition of 50 nM eNOS and monitored at 550 nm in a GE geneQuant100 spectrophotometer. Activity was determined using a ΔE550=21 mM^−1cm^−1. An assay in the absence of CaM was carried out to serve as baseline reference.
(§2) Figure 6 Evaluation of inhibitory potency of CBD variants on eNOS activity Modified or unmodified CBD peptides were assessed for their ability to inhibit (A) citrulline formation activity and (B) Cytochrome c reduction. CR denotes a complete reaction mixture; CR-CaM denotes omission of CaM from the complete reaction mixture; CR+T495 indicates the addition of 10 μM of unmodified CBD (T495) to the complete reaction mixture; CR+A495 denotes the addition of 10 μM of phosphonull CBD (A495) to the complete reaction mixture; CR+D495 indicates the addition of 10 μM of phosphomimetic CBD (D495) to the complete reaction mixture; CR+pT495 denotes the addition of 10 μM of phosphorylated CBD (pT495) to the complete reaction mixture. The complete reaction mixture for L-[^3H]citrulline formation contains 25 mM Tris, pH 7.5, 100 mM NaCl, 0.5 μM CaM, 0.2 mM EDTA, 0.3 mM CaCl2, 100 μM β-NADPH, 10 μM H4B, 20 μM L-arginine, 1 μCi of L-[^3H]arginine, 100 nM eNOS. The complete reaction mixture for cytochrome c reduction contains 25 mM Tris–HCl, pH 7.5, 100 mM NaCl, 10% glycerol, 50 μM cytochrome c, 0.5 μM CaM, 100 μM CaCl2 and 100 μM β-NADPH. The catalytic activity was normalized to give percentages relative to the reaction rate in the absence of each peptide. Each bar represents mean±S.D. of triplicate experiments. Under these conditions, the activities for eNOS bound to CaM were 12±2/min for citrulline formation, and 295±15/min for cytochrome c reduction. Data are presented as means±S.D.*denotes P<0.05, ** P<0.01, NS, not significant difference as compared with that in the absence of synthetic CBD peptides. Each experiment was performed in triplicate and repeated three times.

eNOS [2] = experiment: Inhibition of eNOS reductase activity (cytochrome c reduction) by CBD peptides; format: biochemical, human; conditions: 10 μM peptide; for inhibition of cytochrome c reductase activity / effect on cytochrome c reduction (electron transfer within reductase domain), in words: 50 nM eNOS, 0.5 μM CaM, 100 μM CaCl2, 50 μM cytochrome c, 100 μM β-NADPH, pH 7.5, 25°C, 550 nm; for inhibition of cytochrome c reductase activity: relative to rate without peptide, mean of triplicate experiments; for order of inhibitory potency to eNOS activity: intra-domain electron transfer (cytochrome c reduction): same order stated for CaM binding affinity
Method: as §1, §2

[3] = 100 nM eNOS, 0.5 μM CaM, 0.3 mM CaCl2, 20 μM L-arginine, pH 7.5, 37°C, 4 min

Substance | order of binding affinity for CBD variants to CaM (human CaM) | CaM-peptide complex formation (human CaM) | inhibition of L-citrulline formation (eNOS [1]; [3]) [%] | order of inhibitory potency to eNOS activity: inter-domain electron transfer (citrulline formation) (eNOS [1]) | inhibition of cytochrome c reductase activity (eNOS [2]) [%] | order of inhibitory potency to eNOS activity: intra-domain electron transfer (cytochrome c reduction) (eNOS [2]) | effect on cytochrome c reduction (electron transfer within reductase domain), in words (eNOS [2]) | effect on eNOS oxygenase activity (citrulline formation), in words (eNOS [1]; [3])
TRKKA^495FKEVANAVKISASLM [A495, phospho-null CBD peptide, heNOS residues 491–510] | T495>A495>D495>pT495 | also showed CaM-peptide binding | 70 | T495>A495>D495>pT495 | 90 | T495>A495>D495>pT495 |  | 
TRKKD^495FKEVANAVKISASLM [D495, phosphomimetic CBD peptide, heNOS residues 491–510] | T495>A495>D495>pT495 | also showed CaM-peptide binding | 20 | T495>A495>D495>pT495 | 75 | T495>A495>D495>pT495 |  | 
TRKKT^495FKEVANAVKISASLM [T495, Unmodified CBD peptide, heNOS residues 491–510] | T495>A495>D495>pT495 | exhibited increases in CaM–peptide complex bands and reciprocal attenuation of free CaM bands | 87 | T495>A495>D495>pT495 |  | T495>A495>D495>pT495 | inhibits the activity completely | 
TRKKpT^495FKEVANAVKISASLM [pT495, phosphorylated CBD peptide, heNOS residues 491–510] | T495>A495>D495>pT495 | nearly no detectable peptide-CaM complex |  | T495>A495>D495>pT495 |  | T495>A495>D495>pT495 | virtually no inhibition on electron transfer within reductase domain | did not interfere with eNOS oxygenase activity
